The record followed here is publication PMC11708041, “Structural basis of a microbial trimethylamine transporter” (mBio, 2024).

One series addresses T1, TmaT (Myroides profundi, UniProt A0A0B5RUB0).
T1 construct: full-length, 529 residues, C-terminal 8xHis tag (pET-22b), expressed in E. coli C43(DE3), DDM-solubilised; homotrimer
T1 sequence (A0A0B5RUB0 1-529): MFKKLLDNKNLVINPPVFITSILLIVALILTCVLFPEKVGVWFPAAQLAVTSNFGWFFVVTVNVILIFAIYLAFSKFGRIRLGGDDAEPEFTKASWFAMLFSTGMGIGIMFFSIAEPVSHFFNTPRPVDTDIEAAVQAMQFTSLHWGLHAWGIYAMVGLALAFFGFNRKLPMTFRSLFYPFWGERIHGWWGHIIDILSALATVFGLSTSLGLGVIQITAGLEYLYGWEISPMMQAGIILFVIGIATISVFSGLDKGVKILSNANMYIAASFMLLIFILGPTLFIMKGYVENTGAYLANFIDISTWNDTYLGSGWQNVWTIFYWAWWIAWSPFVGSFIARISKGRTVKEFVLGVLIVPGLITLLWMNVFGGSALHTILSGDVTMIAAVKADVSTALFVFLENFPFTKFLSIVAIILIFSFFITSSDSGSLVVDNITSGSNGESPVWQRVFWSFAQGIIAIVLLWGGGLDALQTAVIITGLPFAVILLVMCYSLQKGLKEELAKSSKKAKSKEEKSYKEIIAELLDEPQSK
The series is described as follows: microscale thermophoresis. The series is classed as binding. An excerpt: microscale thermophoresis on TmaT
For orientation: Microscale thermophoresis detects binding through changes in fluorescence in a small temperature gradient.

Series [1] deals with the molecule itself. The series is described as follows: cryo-EM structure; single-particle cryo-EM of purified TmaT (about 8 mg/mL, in DDM); apo TmaT, and with 2 mM or 5 mM TMA; homotrimer.

In the case of `CN(C)C` [TMA], at TmaT, the Kd turned out to be 49 ± 9.4 µM.

B1: TmaT, TMA transporter of Myroides profundi D25 (natural protein, UniProt A0A0B5RUB0 1-529, looked up)
chain: MFKKLLDNKNLVINPPVFITSILLIVALILTCVLFPEKVGVWFPAAQLAVTSNFGWFFVVTVNVILIFAIYLAFSKFGRIRLGGDDAEPEFTKASWFAMLFSTGMGIGIMFFSIAEPVSHFFNTPRPVDTDIEAAVQAMQFTSLHWGLHAWGIYAMVGLALAFFGFNRKLPMTFRSLFYPFWGERIHGWWGHIIDILSALATVFGLSTSLGLGVIQITAGLEYLYGWEISPMMQAGIILFVIGIATISVFSGLDKGVKILSNANMYIAASFMLLIFILGPTLFIMKGYVENTGAYLANFIDISTWNDTYLGSGWQNVWTIFYWAWWIAWSPFVGSFIARISKGRTVKEFVLGVLIVPGLITLLWMNVFGGSALHTILSGDVTMIAAVKADVSTALFVFLENFPFTKFLSIVAIILIFSFFITSSDSGSLVVDNITSGSNGESPVWQRVFWSFAQGIIAIVLLWGGGLDALQTAVIITGLPFAVILLVMCYSLQKGLKEELAKSSKKAKSKEEKSYKEIIAELLDEPQSK
notes: TmaT, trimethylamine transporter of the betaine-choline-carnitine transporter (BCCT) family, Myroides profundi D25; full-length tmaT, 1,590 nucleotides encoding a 529-amino-acid polypeptide; no removal of the tag is described; Homotrimer in the cryo-EM structures; also called recombinant TmaT; WT TmaT
For B1, the “stoichiometry N” value in series [1] was determined as 3.

For orientation: Kd means the constant that tells how readily two partners part at equilibrium. Higher therefore signals weaker binding. For orientation: stoichiometry N means the number of molecules, sites or subunits per partner or assembly.
